Results: patent publication US20210070718A1, “NOVEL PHENYLSULFONYL OXAZOLE DERIVATIVE AND USE THEREOF” (priority 2018, published 2021)

Columns and labels:
Format in all cases: in vivo
APP/PS1 mouse [1] = experiment: Amyloid-β and tau deposition by thioflavin S / immunofluorescence staining in brain cortex and hippocampus; settings: 50 mg/kg intraperitoneally 3 times a week for 2 months, compared to APP/PS1 mouse (PBS)
Source text: (§1) A mouse experiment was approved by the Kyungpook National University Institutional Animal Care and Use Committee (IACUC). As an animal model of neurodegenerative disease (particularly, Alzheimer's disease), a transgenic mouse line overexpressing APPswe (hAPP695swe) and PS1 (presenilin-1M146V) based on a C57BL/6 mouse (Charles River, UK) was used. [hereinafter, APP/PS1 mouse (denoted by AD), GlaxoSmithKline Co., Ltd.]
(§2) To confirm a therapeutic effect of the autophagy enhancing compound obtained in <Example 1>, an experimental substance was administered to the animal model according to the experimental outline (schedule) illustrated in FIG. 1. Specifically, PBS or the autophagy enhancing compound was intraperitoneally injected into a 6.5-month-old mouse 3 times a week at a dose of 50 mg/kg. After two months of the injection of the autophagy enhancing compound, behavioral analysis was performed, and the brain tissue of the mouse was used as a sample after the behavioral analysis (i.e., at 9.5 […] of mouse) (see FIG. 1).
(§3) After immobilization of the mouse's cerebrum and hippocampus, 0.5% thioflavin S (Sigma-Aldrich), anti-20G10 against Aβ42 (mouse, 1:1000) and anti-G30 against A1340 (rabbit, 1:1000), anti-GFAP (rabbit, 1:500, DAKO) and anti-Iba-1 (rabbit, 1:500, WAKO) were incubated together. The sites were analyzed using a confocal laser scanning microscope or an Olympus BX51 microscope equipped with Fluoview SV1000 imaging software (Olympus FV1000, Japan). A percentage of an area of a stained area to an area of total tissues was quantified and analyzed by using Metamorph software (Molecular Devices).
In order to determine whether the aforementioned autophagy enhancing compound had effects for prevention and treatment on neurodegenerative disease, the effect of the compound on an Alzheimer's model was representatively evaluated.
First, an amyloid-β (Aβ) profile of an Alzheimer's lesion and the deposition degree of tau protein were confirmed. First, the cerebral cortex and hippocampus regions of the mouse were stained with thioflavin S (ThioS) according to a known method to confirm the deposition degree of fibrillar amyloid-β. In addition, immunofluorescence staining of Aβ40, Aβ42, and AT8 was performed to confirm the deposition degree of amyloid-β and tau protein.

APP/PS1 mouse [2] = experiment: Morris water maze (MWM) test; settings: 50 mg/kg intraperitoneally 3 times a week for 2 months, FIGS. 5A to 5C
Source text: as §1, §2
(§4) In order to confirm potential effects on learning and memory, Morris water maze (MWM) and fear conditioning tests were performed. In the MWM, the mouse learned a task 4 times a day for 10 days, a platform was removed on day 11, and a probe trial was performed. […]

APP/PS1 mouse [3] = experiment: Fear conditioning test; settings: 50 mg/kg intraperitoneally 3 times a week for 2 months, FIG. 5D
Source text: as §1, §2, §4

APP/PS1 mouse [4] = experiment: Astrocyte (GFAP) and microglia (Iba-1) immunofluorescence in brain; settings: 50 mg/kg intraperitoneally 3 times a week for 2 months, compared with APP/PS1 mouse
Source text: as §1
To confirm a therapeutic effect of the autophagy enhancing compound obtained in <Example 1>, an experimental substance was administered to the animal model according to the experimental outline (schedule) illustrated in FIG. 1. Specifically, PBS or the autophagy enhancing compound was intraperitoneally injected into a 6.5-month-old mouse 3 times a week at a dose of 50 mg/kg. […]
as §3, with “Devices). […]” for “Devices).”

APP/PS1 mouse [5] = experiment: Real-time quantitative PCR of inflammatory cytokines in brain tissue; settings: 50 mg/kg intraperitoneally 3 times a week for 2 months, brain mRNA, FIG. 6C
Source text: as §1, §2
A real-time quantitative PCR method was used to measure the expression levels of inflammatory response-related cytokines (TNF-α, IL-1β, and IL-6). Total RNA was extracted from the brain tissue using an RNeasy Plus mini kit (Qiagen, Korea, Ltd), and cDNA was synthesized from a total of 5 μg of RNA using a kit from Clontech (Mountain View, Calif.). In addition, by using a Corbett research RG-6000 real-time PCR instrument, real-time quantitative PCR was performed by setting 95° C., 10 minutes; 95° C., 10 seconds; and 58° C., 15 seconds as one cycle and repeating 40 cycles.

APP/PS1 mouse [6] = experiment: Western blotting of autophagy-related proteins in brain tissue
Source text: as §1, §2
Expression of the following genes was analyzed using Western blotting. First, antibodies against LC3, beclin-1, and p62 [all, purchased from cell signaling Technologies], cathepsin D (R&D systems) and β-actin (Santa Cruz) were used, and density quantification was performed by using ImageJ software (US National Institutes of Health).
In order to confirm how the aforementioned autophagy enhancing compound (in particular, 5-methoxy-4-(phenylsulfonyl)-2-(4-(trifluoromethyl)phenyl)oxazole) actually act in an autophagy-related pathway in vivo, conversion of LC3-I to LC3-II, and expression levels of beclin-1, cathepsin D and p62 were confirmed through a Western blotting experiment in brain tissue samples of 9.5-month-old WT, APP/PS1 (untreated group), and an APP/PS1 mouse injected with the autophagy enhancing compound.

[7] = 9.5-month-old APP/PS1 mouse, 50 mg/kg intraperitoneally 3 times a week for 2 months, versus increased level in APP/PS1 mouse

COc1oc(-c2ccc(C(F)(F)F)cc2)nc1S(=O)(=O)c1ccccc1 [autophagy enhancing compound, 5-methoxy-4-(phenylsulfonyl)-2-(4-(trifluoromethyl)phenyl)oxazole]
deposition of fibrillar Aβ (thioflavin S) (APP/PS1 mouse [1]; cerebral cortex and hippocampus, FIG. 2): significantly low
deposition of Aβ40 (APP/PS1 mouse [1]; cortex and hippocampus, FIG. 3A): significantly low
deposition of Aβ42 (APP/PS1 mouse [1]; cortex and hippocampus, FIG. 3B): significantly low
deposition of tau protein (AT8) (APP/PS1 mouse [1]; cortex and hippocampus, FIG. 4): significantly low
impairment in spatial memory, cognition and memory formation (Morris water maze) (APP/PS1 mouse [2]): significantly improved
memory in fear conditioning test (contextual and tone tasks) (APP/PS1 mouse [3]): remarkable memory improvement effect
activity of astrocytes (GFAP) (APP/PS1 mouse [4]; FIG. 6A): significantly reduced
activity of microglia (Iba-1) (APP/PS1 mouse [4]; FIG. 6B): significantly reduced
gene expression of inflammatory cytokine IL-1β (APP/PS1 mouse [5]): restored to a normal level
gene expression of inflammatory cytokine IL-6 (APP/PS1 mouse [5]): restored to a normal level
gene expression of inflammatory cytokine TNF-α (APP/PS1 mouse [5]): restored to a normal level
level of LC3-II (APP/PS1 mouse [6]; 9.5-month-old APP/PS1 mouse, 50 mg/kg intraperitoneally 3 times a week for 2 months, FIG. 7): decreased to a level similar to WT
expression level of cathepsin D (APP/PS1 mouse [6]; [7]): decreased
expression level of p62 (APP/PS1 mouse [6]; [7]): decreased
expression of beclin-1 (APP/PS1 mouse [6]; 9.5-month-old WT, APP/PS1 and injected APP/PS1 mouse, FIG. 7): no large difference in the three groups
